In patent US10577378B2, “EIF4A-inhibiting compounds and methods related thereto” (eFFECTOR Therapeutics, Inc., priority 2015, dated 2020):

Each compound was assayed on MDA-MB-231 human breast cancer cells (assay: Cell proliferation assay (CellTiter-Glo, 72 hours treatment)). Details: Homo sapiens; MDA-MB-231 cells, 72 hours at 37° C., CellTiter-Glo; read-out: MDA-MB-231 cell proliferation assay (IC50).
Assay type: cell-based
Experimental: Human tumor cell lines were cultured in the appropriate media (DMEM and RPMI) supplemented with penicillin G (100 U/ml), streptomycin (100 μg/ml), 10% FBS in a humidified atmosphere of 5% CO2 maintained at 37° C. Exponentially growing cells were seeded at 2,500 cells/well in 96 well plates prior to drug treatment. The following day, cells were treated with either DMSO (vehicle control) or eIF4A inhibitors at the appropriate dose for 72 hours at 37° C. Following compound treatment, cell proliferation was assessed by CellTiter-Glo assay (Promega, Madison Wis.) according to the manufacturer's protocol. Dose-response curves were fitted by non-linear regression (sigmoidal dose response model) using KaleidaGraph (Synergy Software, Reading Pa.) and IC50 values were calculated.
To this end, IC50 values of less than 100 nM are labelled as “+++”, from 100 nM to 1000 nM are labelled as “++”, and greater than 1000 nM are labelled as “+” (NA means “not available”).

Row | Structure (SMILES) | IC50
1 | N#Cc1ccc([C@@]23Oc4cc(Cl)cnc4[C@]2(O)[C@@H](C#N)[C@H](C(N)=O)[C@H]3c2ccccc2)cc1 (racemic) [52F, Rac-(5aR,6S,7R,8R,8aR)-3-chloro-8-cyano-5a-(4-cyanophenyl)-8a-hydroxy-6-phenyl-5a,7,8,8a-tetrahydro-6H-cyclopenta[4,5]furo[3,2-b]pyridine-7-carboxamide] | 100 to 1000 nM
2 | CN(C)C(=O)[C@H]1[C@@H](O)[C@@]2(O)c3ncccc3O[C@@]2(c2ccc(C#N)cc2)[C@@H]1c1ccccc1 (single isomer, unassigned) [9F] | > 1000 nM
3 | COc1cncc2c1[C@]1(O)[C@H](O)[C@H](S(=O)(=O)c3ccccn3)[C@@H](c3ccccc3)[C@]1(c1ccc(C#N)cc1)O2 (racemic) [119F, Rac-4-((4bS,5S,6R,7S,7aR)-4b,5-dihydroxy-4-methoxy-7-phenyl-6-(pyridin-2-ylsulfonyl)-4b,5,6,7-tetrahydro-7aH-cyclopenta[4,5]furo[2,3-c]pyridin-7a-yl)benzonitrile] | 100 to 1000 nM
4 | N#Cc1ccc([C@@]23Oc4cc(Cl)cnc4[C@]2(O)[C@H](O)[C@H](S(=O)(=O)c2ccccn2)[C@H]3c2ccccc2)cc1 (racemic) [164F, Rac-4-((5aR,6S,7R,8S,8aS)-3-chloro-8,8a-dihydroxy-6-phenyl-7-(pyridin-2-ylsulfonyl)-6,7,8,8a-tetrahydro-5aH-cyclopenta[4,5]furo[3,2-b]pyridin-5a-yl)benzonitrile] | 100 to 1000 nM
5 | COc1cncc2c1[C@]1(O)[C@H](O)[C@H](C(=O)N3[C@@H]4COC[C@H]3C4)[C@@H](c3ccccc3)[C@]1(c1ccc(Br)cc1)O2 (racemic) [266F, Rac-((1R,5S)-3-oxa-6-azabicyclo[3.1.1]heptan-6-yl)((4bS,5R,6R,7S,7aR)-7a-(4-bromophenyl)-4b,5-dihydroxy-4-methoxy-7-phenyl-4b,6,7,7a-tetrahydro-5H-cyclopenta[4,5]furo[2,3-c]pyridin-6-yl)methanone] | < 100 nM
6 | COc1cncc2c1[C@]1(O)[C@H](O)[C@H](N)[C@@H](c3ccccc3)[C@]1(c1ccc(C(F)F)cc1)O2 (racemic) [270F, Rac-(4bS,5R,6R,7R,7aR)-6-amino-7a-(4-(difluoromethyl)phenyl)-4-methoxy-7-phenyl-5,6,7,7a-tetrahydro-4bH-cyclopenta[4,5]furo[2,3-c]pyridine-4b,5-diol] | 100 to 1000 nM
7 | COCCN(C)C(=O)[C@H]1[C@@H](O)[C@@]2(O)c3c(OC)cncc3O[C@@]2(c2ccc(Br)cc2)[C@@H]1c1ccccc1 (racemic) [260F, rac-(4bS,5R,6R,7S,7aR)-7a-(4-bromophenyl)-4b,5-dihydroxy-4-methoxy-N-(2-methoxyethyl)-N-methyl-7-phenyl-4b,6,7,7a-tetrahydro-5H-cyclopenta[4,5]furo[2,3-c]pyridine-6-carboxamide] | < 100 nM
8 | COc1nc(C#N)cc2c1[C@]1(O)[C@H](O)[C@H](CN3CCC3)[C@@H](c3ccccc3)[C@]1(c1ccc(C#N)cc1)O2 (single isomer, unassigned) [212F] | < 100 nM
9 | COc1cncc2c1[C@]1(O)[C@H](O)[C@H](CNCCF)[C@@H](c3ccccc3)[C@]1(c1ccc(C#N)cc1)O2 (racemic) [259F, Rac-4-((4bS,5R,6S,7S,7aR)-6-(((2-fluoroethyl)amino)methyl)-4b,5-dihydroxy-4-methoxy-7-phenyl-4b,5,6,7-tetrahydro-7aH-cyclopenta[4,5]furo[2,3-c]pyridin-7a-yl)benzonitrile] | 100 to 1000 nM
10 | COC(=O)[C@@H]1C(c2ccccc2)[C@]2(c3ccc(I)cc3)Oc3cncc(OC)c3[C@]2(O)[C@@H]1O (mixture of isomers) [193F, Rac-Methyl (4bS,5R,6R,7aR)-4b,5-dihydroxy-7a-(4-iodophenyl)-4-methoxy-7-phenyl-4b,6,7,7a-tetrahydro-5H-cyclopenta[4,5]furo[2,3-c]pyridine-6-carboxylate] | 100 to 1000 nM
11 | COc1cncc2c1[C@]1(O)[C@@H](CNCc3ccncc3)[C@H](CO)[C@@H](c3ccccc3)[C@]1(c1ccc(Br)cc1)O2 (racemic) [187F, Rac-(4bR,5R,6R,7S,7aR)-7a-(4-bromophenyl)-6-(hydroxymethyl)-4-methoxy-7-phenyl-5-(((pyridin-4-ylmethyl)amino)methyl)-5,6,7,7a-tetrahydro-4bH-cyclopenta[4,5]furo[2,3-c]pyridin-4b-ol] | < 100 nM
12 | COc1cncc2c1[C@]1(O)[C@H](O)[C@H](C(=O)N3[C@@H]4CCC[C@H]3CC4)[C@@H](c3ccccc3)[C@]1(c1ccc(Br)cc1)O2 (racemic) [114F, Rac-((1R,5S)-8-azabicyclo[3.2.1]octan-8-yl)((4bS,5R,6R,7S,7aR)-7a-(4-bromophenyl)-4b,5-dihydroxy-4-methoxy-7-phenyl-4b,6,7,7a-tetrahydro-5H-cyclopenta[4,5]furo[2,3-c]pyridin-6-yl)methanone] | < 100 nM
13 | CNC[C@H]1[C@@H](O)[C@@]2(O)c3c(cc(C#N)nc3OC)O[C@@]2(c2ccc(C#N)cc2)[C@@H]1c1ccccc1 (racemic) [225F, Rac-(5aR,6S,7S,8R,8aS)-5a-(4-cyanophenyl)-8,8a-dihydroxy-1-methoxy-7-((methylamino)methyl)-6-phenyl-5a,7,8,8a-tetrahydro-6H-cyclopenta[4,5]furo[3,2-c]pyridine-3-carbonitrile] | < 100 nM
14 | COc1cncc2c1[C@]1(O)[C@H](O)[C@H](C(=O)N(C)C3COC3)[C@@H](c3ccccc3)[C@]1(c1ccc(Br)cc1)O2 (racemic) [237F, Rac-(4bS,5R,6R,7S,7aR)-7a-(4-bromophenyl)-4b,5-dihydroxy-4-methoxy-N-methyl-N-(oxetan-3-yl)-7-phenyl-4b,6,7,7a-tetrahydro-5H-cyclopenta[4,5]furo[2,3-c]pyridine-6-carboxamide] | < 100 nM
15 | C#CC1C[C@@H](c2ccccc2)[C@]2(c3ccc(Br)cc3)Oc3cc(Cl)cnc3[C@]12O (mixture of isomers) [48F, Rac-(5aR,6S,8aR)-5a-(4-bromophenyl)-3-chloro-8-ethynyl-6-phenyl-5a,6,7,8-tetrahydro-8aH-cyclopenta[4,5]furo[3,2-b]pyridin-8a-ol] | > 1000 nM
16 | COc1nc(Cl)cc2c1[C@]1(O)[C@@H](CN3CCOCC3)[C@H](CO)[C@@H](c3ccccc3)[C@]1(c1ccc(Br)cc1)O2 (racemic) [199F, Rac-(5aR,6S,7R,8R,8aR)-5a-(4-bromophenyl)-3-chloro-7-(hydroxymethyl)-1-methoxy-8-(morpholinomethyl)-6-phenyl-5a,6,7,8-tetrahydro-8aH-cyclopenta[4,5]furo[3,2-c]pyridin-8a-ol] | < 100 nM
17 | COc1nc(C#N)cc2c1[C@]1(O)[C@H](O)[C@H](CN(C)C)[C@@H](c3ccccc3)[C@]1(c1ccc(C(F)(F)F)cc1)O2 (single isomer, unassigned) [147F] | < 100 nM
18 | CN(C)C(=O)[C@H]1[C@@H](O)[C@@]2(O)c3nn(C)c(Cl)c3O[C@@]2(c2ccc(C#N)cc2)[C@@H]1c1ccccc1 (racemic) [36F, Rac-(4aR,5S,6R,7R,7aS)-3-chloro-4a-(4-cyanophenyl)-7,7a-dihydroxy-N,N,2-trimethyl-5-phenyl-2,4a,5,6,7,7a-hexahydrocyclopenta[4,5]furo[3,2-c]pyrazole-6-carboxamide] | > 1000 nM
19 | COC(=O)[C@@H]1[C@@H](c2ccccc2)[C@]2(c3ccc(Br)cc3)Oc3cc(Cl)cnc3[C@@]23O[C@@H]13 (racemic) [161F, Rac-methyl (1aS,2R,3S,3aR,8bS)-3a-(4-bromophenyl)-6-chloro-3-phenyl-1a,2,3,3a-tetrahydro-oxireno[2″,3″:1′,5′]cyclopenta[1′,2′:4,5]furo[3,2-b]pyridine-2-carboxylate] | > 1000 nM
20 | CN(C)C(=O)[C@H]1[C@@H](O)[C@@]2(O)c3nc(C(F)(F)F)c(O)cc3O[C@@]2(c2ccc(C#N)cc2)[C@@H]1c1ccccc1 (racemic) [29F, Rac-(5aR,6S,7R,8R,8aS)-5a-(4-cyanophenyl)-3,8,8a-trihydroxy-N,N-dimethyl-6-phenyl-2-(trifluoromethyl)-5a,7,8,8a-tetrahydro-6H-cyclopenta[4,5]furo[3,2-b]pyridine-7-carboxamide] | > 1000 nM
21 | COc1cncc2c1[C@]1(O)[C@H](O)[C@H](CN(C)Cc3ccccc3)[C@@H](c3ccccc3)[C@]1(c1ccc(C#N)cc1)O2 (racemic) [76F, Rac-4-((4bS,5R,6S,7S,7aR)-6-((benzyl(methyl)amino)methyl)-4b,5-dihydroxy-4-methoxy-7-phenyl-4b,5,6,7-tetrahydro-7aH-cyclopenta[4,5]furo[2,3-c]pyridin-7a-yl)benzonitrile] | < 100 nM
22 | COc1nc(C#N)cc2c1[C@]1(O)[C@H](O)[C@H](CN3CCOCC3)[C@@H](c3ccccc3)[C@]1(c1ccc(C#N)cc1)O2 (single isomer, unassigned) [151F] | < 100 nM
23 | COc1nc(C#N)cc2c1[C@]1(O)[C@H](O)[C@H](CN(C)CC(F)F)[C@@H](c3ccccc3)[C@]1(c1ccc(C#N)cc1)O2 (racemic) [208Fa, Rac-(5aR,6S,7S,8R,8aS)-5a-(4-cyanophenyl)-7-(((2,2-difluoroethyl)(methyl)amino)methyl)-8,8a-dihydroxy-1-methoxy-6-phenyl-5a,7,8,8a-tetrahydro-6H-cyclopenta[4,5]furo[3,2-c]pyridine-3-carbonitrile] | 100 to 1000 nM
24 | COc1ccc([C@@]23Oc4cc(OC)cnc4[C@]2(O)[C@H](O)[C@H](C(=O)N(C)C)[C@H]3c2ccccc2)cc1 (racemic) [1F, Rac-(5aR,6S,7R,8R,8aS)-8,8a-dihydroxy-3-methoxy-5a-(4-methoxyphenyl)-N,N-dimethyl-6-phenyl-5a,7,8,8a-tetrahydro-6H-cyclopenta[4,5]furo[3,2-b]pyridine-7-carboxamide] | 100 to 1000 nM
